From patent US20240374746A1, “SIRP-ALPHA ANTIBODIES AND CONJUGATES” (Tallac Therapeutics, Inc., priority 2021, published 2024)

Assays:
[1] = tested on: THP-1-Dual hTLR9 cell line, interferon regulatory factor (IRF) pathway; experiment: THP-1-Dual hTLR9 reporter assay, IRF pathway (secreted Lucia luciferase); format: cell-based; details: 24 hours; F(ab′)2 anti-human IgG Fcγ cross-linking agent; read-out: EC50 of IRF induction
Procedure: THP-1-Dual hTLR9 cell line (thpd-nfis, Invivogen) was derived from human THP-1 monocytes engineered to overexpress the human TLR9 (hTLR9) gene and featuring two reporter genes allowing for simultaneous assessment of the NF-kB pathway by monitoring the activity of an inducible secreted embryonic alkaline phosphatase (SEAP), and the interferon regulatory factor (IRF) pathway by monitoring the activity of an inducible secreted Lucia luciferase. Briefly, 250,000 cells in 100 uL of growth media (RPMI 1640 (Gibco), 2 mM L-glutamine (Gibco), 25 mM HEPES (Gibco), 10% FBS (Gibco), 100 U/mL penicillin (Gibco), 100 ug/mL streptomycin (Gibco), 100 ug/mL Normacin (Invivogen) were plated in 96-well flat-bottom plates (Nunc). An 8 step 2-fold serial dilution of anti-SIRP-α antibody or anti-SIRP-α antibody conjugate was added to cells in 50 μL for a final concentration range of 200 nM-1.56 nM. 10 μg/mL of a F(ab′)2 fragment goat anti-human, IgG Fcγ fragment specific (Jackson Immuno Research) was added in 50 μL of growth media as a cross-linking agent. Cells were incubated at 37 C for 24 hours. NF-kB and IRF induction from supernatant was detected according to manufacturer's protocol. EC50 values were derived using three-parameter […] regression curve fir in Prism 9 (GraphPad), and data were presented as fold-over media control. […]

dendritic cells [2] = experiment: Dendritic cell activation (CD40) in cynomolgus PBMCs; format: cell-based; details: 48 hours
Procedure: Cynomolgus whole blood was received from BioIVT and diluted 1:3 with Phosphate Buffered Saline (PBS, Gibco). Diluted blood was underplayed with 15 mL 90% Ficoll-Paque (GE Healthcare) in PBS solution. Tubes were centrifuged for 30 minutes at 400×g with break off. Cells were collected from the interface, resuspended and washed in FACS buffer (PBS with 0.5% Bovine Serum Albumin (Gibco)). After one wash, cells were resuspended in ACK lysis buffer (Gibco) for 15 min at room temperature, washed in FACs buffer and centrifuged before repeating. Purified PBMCs were resuspended in Complete RPMI (RPMI, 10% FBS, 1× Pen/Strep, 1× Glutamax). PBMCs were immediately plated onto a 96-well format (0.3e6/well) in Complete RPMI. Three-fold serial dilutions were added to the cells from 1 μM to 1.4 nM of CpG oligonucleotide and 300 nM to 0.4 nM of anti-SIRP-α antibody (heavy chain comprising the sequence of SEQ ID NO:66 and light chain comprising the sequence of SEQ ID NO:75) and the corresponding antibody:CpG conjugate (heavy chain comprising the sequence of SEQ ID NO: 66 and light chain comprising the sequence of SEQ ID NO:75, conjugated to CpG oligo 7-7 (SEQ ID NO:35)) at 37° C. under 5% CO2 for 48 hours. […] Cells were analyzed on Attune NxT Flow Cytometer (Thermo Fisher), with subsequent data analysis by Flowjo 10.7 (Treestar). […] Levels of activation marker were assessed by median fluorescent intensity.

dendritic cells [3] = experiment: Dendritic cell activation (CD40) in human PBMCs; format: cell-based; details: 24 hours
Procedure: Trima residuals were received from Vitalant and diluted 1:3 with Phosphate Buffered Saline (PBS, Gibco). Diluted blood was underplayed with 15 mL Ficoll-Paque (GE Healthcare). Tubes were centrifuged for 30 minutes at 400×g with break off. PBMCs were collected from the interface, resuspended and washed in FACS buffer (PBS with 0.5% Bovine Serum Albumin (Gibco)). After one wash, PBMCs were resuspended in Complete RPMI (RPMI, 10% FBS, 1× Pen/Strep, 1× Glutamax). PBMCs were immediately plated onto a 96-well format (1e6/well) in Complete RPMI. Three-fold serial dilutions were added to the cells from 300 nM to 0.4 nM for anti-SIRP-α antibody (heavy chain comprising the sequence of SEQ ID NO:66 and light chain comprising the sequence of SEQ ID NO:75) and anti-SIRP-α conjugate (heavy chain comprising the sequence of SEQ ID NO:66 and a light chain comprising the sequence of SEQ ID NO:75, conjugated to CpG oligo 7-7 (SEQ ID NO:35)). Free CpG 7-7 (SEQ ID NO:35) was titrated from 3 μM to 4.12 nM. Cells were incubated at 37° C. under 5% CO2 for 24 hours. […] Cells were analyzed on Attune NxT Flow Cytometer (Thermo Fisher), with subsequent data analysis by Flowjo 10.7 (Treestar). […] Levels of activation marker were assessed by median fluorescent intensity.

[4] = tested on: Ramos-Blue Cells NF-kB/AP-1 Reporter B lymphocytes; experiment: Ramos NFkb Reporter Assay; format: cell-based, human; details: 1 uM to 64 pM CpG, 24 h; compared to 12070 and ODN2006
Procedure: For Ramos NFkb Reporter Assay, Ramos-Blue Cells NF-kB/AP-1 Reporter B lymphocytes were purchased from Invivogen. Cells were grown and maintained in complete DMEM supplemented with 2 mM L-glutamine, 10% FBS, 100 ug/mL Normacin, Pen-Strep, 100 ug/mL Zeocin. Stimulation of the Ramos-Blue cells was performed. Briefly, cells were rinsed in growth medium without antibiotics. Cells were counted and resuspended in fresh complete DMEM without selection antibiotics at a density of 2×10^6 cell/mL. 20 uL of 10 uM CpG 7-7, CpG 12070 and ODN2006 titrated 1:5 were added to a flat-bottom 96-well plate, 180 uL of the cell suspension were added to a final concentration of 1 uM to 64 pM of CpG. Plate was incubated at 37° C. in a 5% CO2 incubator for 24 h. On day of assay, QB reagent and QB buffer were thawed before us. Quanti-Blue solution was prepared by adding 1 mL of QB reagent and […] QB buffer to 98 mL of sterile water in a sterile glass bottle. 180 μL of Quanti-Blue solution was dispensed per well into a new flat-bottom 96-well plate. 20 μL of supernatant from treated Ramos-Blue cells was then added to the 96-well plate. Plate was ten incubated for 6 h. Optical density was measured at OD655 using a plate reader (Molecular Devices), and data was tabulated in GraphPad Prism 9.0.

[5] = tested on: PBMC cells from three different donor lines (D559, D804 and D643); experiment: CpG activity on PBMCs from different donors (CD40 expression); format: cell-based, human; details: PBMCs of donors D559, D804 and D643; compared with 12070
Procedure: Trima residuals were received from Vitalant and diluted 1:2 with Phosphate Buffered Saline (PBS, Gibco). Diluted blood was split into two tubes and underplayed with 15 mL Ficoll-Paque (GE Healthcare). Tubes were centrifuged for 30 minutes at 400×g. PBMCs were collected from the interface, resuspended and washed in FACS buffer (PBS with 0.5% Bovine Serum Albumin (Gibco)). After one wash, PBMCs were resuspended in Complete RPMI (RPMI+10% FBS).
PBMCs were immediately plated onto a 96-well format (500K/well) in Complete RPMI. Five-fold serial dilutions were added to the cells from 1 uM to 64 pM of CpG oligonucleotides at 37° C. under 5% CO2 for 48 hours. Cells were pelleted by centrifugation for five minutes at 400×g and stained at 4° C. in Fixable Viability Dye eFluor 780 (Thermo Fisher) diluted 1:4000 in PBS. Cells were centrifuged and stained at 4° C. in FACS buffer for 30 minutes containing FcR Blocking Reagent (Miltenyi Biotec), anti-CD19, anti-CD20, anti-CD40, anti-HLADR and anti-CD80. Cells were centrifuged and washed twice in FACS buffer and fixed in 0.5% paraformaldehyde. Cells were analyzed on Attune NxT Flow Cytometer (Thermo Fisher), with subsequent data analysis by Flowjo 10.7 (Treestar). Dead cells were excluded by gating on the eFluor 780-negative population. B cells were identified as CD19+CD20+ cells and level of activation marker was assessed by median fluorescent intensity. […]

[6] = tested on: CD14+ monocytes and dendritic cells; experiment: CD40 activation in myeloid cells by unconjugated CpG oligonucleotides; format: cell-based; details: human myeloid cells; 40 nM, 48 hours; compared to the 12070 CpG oligonucleotide
Procedure: Trima residuals were received from Vitalant and diluted 1:3 with Phosphate Buffered Saline (PBS, Gibco). Diluted blood was underplayed with 15 mL Ficoll-Paque (GE Healthcare). Tubes were centrifuged for 30 minutes at 400×g with break off. PBMCs were collected from the interface, resuspended and washed in FACS buffer (PBS with 0.5% Bovine Serum Albumin (Gibco)). After one wash, PBMCs were resuspended in Complete RPMI (RPMI+10% FBS). PBMCs were immediately plated onto a 96-well format (1e6/well) in Complete RPMI. CpG oligonucleotides were incubated with the cells at 40 nM concentration at 37° C. under 5% CO2 for 48 hours. Cells were pelleted by centrifugation for five minutes at 400×g and stained at 4° C. in Fixable Viability Dye eFluor 780 (Thermo Fisher) diluted 1:5000 in PBS. Cells were centrifuged and stained at 4° C. in FACS buffer for 60 minutes containing FcR Blocking Reagent (Miltenyi Biotec), anti-CD14, anti-CD11c, anti-CD3, anti-CD19, anti-CD56, anti-CD16, anti-HLADR, anti-CD40, and anti-CD86 (Thermo Fisher, Biolegend). Cells were centrifuged and washed twice in FACS buffer and fixed in 0.5% paraformaldehyde. Cells were analyzed on Attune NxT Flow Cytometer (Thermo Fisher), with subsequent data analysis by Flowjo 10.7 (Treestar). Dead cells were excluded by gating on the eFluor 780-negative population. […] Levels of activation marker were assessed by median fluorescent intensity.

With “CpG 7-7 (DNA TCGTCGTGTCGTTT; modified_base 1 OTHER; 5-Bromo-2'-deoxyuridine; modified_base 13..14 OTHER; 2'-O-Methyl-Thymidine; modified_base 1..4 OTHER; phosphorothioate linkages; misc_feature 4^5 phosphotriester linker-PEG24-NH2; modified_base 5..9 OTHER; modified_base 9^10 OTHER; phosphorodithioate linkage; modified_base 10..14 OTHER; misc_feature 14 3' spacer C3)” the EC50 [1] was 84 nM, the “surface marker expression (CD40) on dendritic cells” value (dendritic cells [2]) was “potent TLR9 agonist with targeted dendritic cell activation across species” and the “surface marker expression (CD40) on dendritic cells” value (dendritic cells [3]) was “potent TLR9 agonist with targeted dendritic cell activation across species”. The “activity in NFkb reporter assay” value [4] was “significantly higher activity”, the “activity as observed by CD40 expression” value [5] was “higher activities” and the “activation of CD40” value [6] was “higher activation of CD40”.
